Values of other authors, collected in patent EP3616687A2, “PREPARATION FOR THE TREATMENT AND/OR PROPHYLAXIS OF INFLAMMATORY INFECTIOUS DISEASES” (Lovtsov, Valentin Vyacheslavovich, priority 2017, dated 2018).

Settings: clinical microbiological studies

For `[H]/N=C(\N/C(=N/[H])NCCCCCCNC(=N)NC(=N)Nc1ccc(Cl)cc1)Nc1ccc(Cl)cc1` [Chlorhexidine], the “antibacterial activity, fold higher compared to Miramistine” value is given as 8 fold.
